The record followed here is ChEMBL document CHEMBL5523738, “Lipid Trolling to Optimize A3 Adenosine Receptor-Positive Allosteric Modulators (PAMs)” (J Med Chem, 2024).

Test [1] addresses T1, Adenosine receptor A3 (Mus musculus) (UniProt Q61618).
T1 sequence (whole entry): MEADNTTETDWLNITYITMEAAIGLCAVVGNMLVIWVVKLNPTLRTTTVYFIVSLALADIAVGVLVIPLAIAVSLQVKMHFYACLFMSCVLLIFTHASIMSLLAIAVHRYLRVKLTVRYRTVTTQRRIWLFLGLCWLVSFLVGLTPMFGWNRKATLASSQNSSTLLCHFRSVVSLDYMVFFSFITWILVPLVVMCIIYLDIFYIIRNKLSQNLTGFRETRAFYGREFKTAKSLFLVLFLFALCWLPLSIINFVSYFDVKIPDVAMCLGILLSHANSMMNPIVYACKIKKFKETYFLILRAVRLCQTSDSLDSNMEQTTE
In words: Positive allosteric modulation of full length mouse A3 adenosine receptor transfected in HEK293 cell membranes assessed as slow down of [125I]I-AB-MECA dissociation rate at 10 uM preincubated with radioligand for 3 hrs followed by NECA and compound addition and measured upto 180 mins by gamma counter method. The note with it: Membrane, filed as positive allosteric modulator.

For test [2], the target named is T1, Adenosine receptor A3 (Mus musculus). In words: Orthosteric antagonist activity at full length mouse A3 adenosine receptor transfected in HEK293 cell membranes assessed as inhibition of [125I]I-AB-MECA binding at equilibrium at 10 uM by gamma counter method. To be noted: Membrane, filed as antagonist.
Test [3] concerns the target T2, Adenosine receptor A3 (Homo sapiens) (UniProt P0DMS8).
T2 sequence (whole entry): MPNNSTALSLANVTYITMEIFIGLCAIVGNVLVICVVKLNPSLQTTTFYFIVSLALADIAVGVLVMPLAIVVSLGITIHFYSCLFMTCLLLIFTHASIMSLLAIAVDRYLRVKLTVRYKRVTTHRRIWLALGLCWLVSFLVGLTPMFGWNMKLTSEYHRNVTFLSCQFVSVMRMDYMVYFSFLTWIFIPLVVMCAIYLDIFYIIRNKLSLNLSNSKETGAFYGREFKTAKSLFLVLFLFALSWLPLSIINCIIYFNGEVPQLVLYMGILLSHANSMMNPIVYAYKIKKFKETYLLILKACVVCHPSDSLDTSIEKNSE
In words: Positive allosteric modulation of human A3 adenosine receptor transfected in HEK293 cell membranes assessed as potentiation of 5-(2-chloro-6-((3-iodobenzyl)amino)-9H-purin-9-yl)-3,4-dihydroxy-N-methyltetrahydrofuran-2-carboxamide induced [35S]GTP-gammaS binding by measuring fold increase in agonist …. The note with it: Membrane, filed as positive allosteric modulator, dose 1.0 µM, time 3.0 hrs.

Test [4] addresses T2, Adenosine receptor A3 (Homo sapiens). In words: Positive allosteric modulation of human A3 adenosine receptor transfected in HEK293 cell membranes assessed as slow down of [125I]I-AB-MECA dissociation rate at 10 uM preincubated with radioligand for 3 hrs followed by NECA and compound addition and measured after 60 mins by gamma counter method. The note with it: Membrane, filed as positive allosteric modulator.

For test [5] the target is unchanged. In words: Orthosteric antagonist activity at human A3 adenosine receptor transfected in HEK293 cell membranes assessed as inhibition of [125I]I-AB-MECA binding at equilibrium at 10 uM measured for 18 hrs by gamma counter method. To be noted: Membrane, filed as antagonist.
Test [6] has the same target. In words: Antagonist activity at human A3 adenosine receptor transfected in HEK293 cell membranes assessed as rightward shift in 5-(2-chloro-6-((3-iodobenzyl)amino)-9H-purin-9-yl)-3,4-dihydroxy-N-methyltetrahydrofuran-2-carboxamide activation curve pretreated for 1 hr followed by agonist addition and measured after 2 hrs by liquid scintillation counting method. The class given is functional. To be noted: Membrane, filed as antagonist, time 3.0 hrs.

The target of test [7] is D(1A) dopamine receptor (Homo sapiens) (UniProt P21728). In words: Binding affinity to D1 receptor (unknown origin).
Sequence of D(1A) dopamine receptor (Homo sapiens) (P21728 whole entry): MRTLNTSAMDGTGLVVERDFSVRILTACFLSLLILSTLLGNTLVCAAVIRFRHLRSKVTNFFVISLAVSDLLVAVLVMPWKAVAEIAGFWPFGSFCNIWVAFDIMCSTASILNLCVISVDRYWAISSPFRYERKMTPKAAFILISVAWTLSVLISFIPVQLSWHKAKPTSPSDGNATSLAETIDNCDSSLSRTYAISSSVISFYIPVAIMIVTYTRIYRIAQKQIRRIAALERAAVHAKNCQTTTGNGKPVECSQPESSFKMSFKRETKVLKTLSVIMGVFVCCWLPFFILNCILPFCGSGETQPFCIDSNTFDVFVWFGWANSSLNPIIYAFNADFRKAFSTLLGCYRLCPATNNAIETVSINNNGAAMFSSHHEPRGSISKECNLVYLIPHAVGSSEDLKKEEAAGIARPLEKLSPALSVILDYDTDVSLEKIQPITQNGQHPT
Test [8] deals with Muscarinic acetylcholine receptor M2 (Homo sapiens) (UniProt P08172). In words: Binding affinity to M2 receptor (unknown origin).
The species named for another test is Homo sapiens. In words: Binding affinity to BZP receptor (unknown origin).
The target of test [9] is Muscarinic acetylcholine receptor M1 (Homo sapiens) (UniProt P11229). In words: Binding affinity to M1 receptor (unknown origin).
For test [10], the target named is Beta-3 adrenergic receptor (Homo sapiens) (UniProt P13945). In words: Binding affinity to beta3 adrenergic receptor (unknown origin).
Test [11] has as its target Muscarinic acetylcholine receptor M4 (Homo sapiens) (UniProt P08173). In words: Binding affinity to M4 receptor (unknown origin).
The target in test [12] is Delta-type opioid receptor (Homo sapiens) (UniProt P41143). In words: Binding affinity to DOR (unknown origin).
Sequence of Delta-type opioid receptor (Homo sapiens) (P41143 whole entry): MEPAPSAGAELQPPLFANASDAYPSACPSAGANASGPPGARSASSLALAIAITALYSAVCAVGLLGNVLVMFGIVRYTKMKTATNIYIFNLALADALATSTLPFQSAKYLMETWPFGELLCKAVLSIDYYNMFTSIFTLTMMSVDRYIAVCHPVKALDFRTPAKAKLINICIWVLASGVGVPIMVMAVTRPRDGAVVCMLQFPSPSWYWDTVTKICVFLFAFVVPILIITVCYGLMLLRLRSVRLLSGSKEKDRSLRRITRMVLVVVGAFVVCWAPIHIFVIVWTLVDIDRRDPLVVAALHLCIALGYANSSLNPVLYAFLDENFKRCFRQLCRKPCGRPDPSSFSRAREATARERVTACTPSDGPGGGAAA
The target in test [13] is 5-hydroxytryptamine receptor 3A (Homo sapiens) (UniProt P46098). In words: Binding affinity to 5-HT3 (unknown origin).
Sequence of 5-hydroxytryptamine receptor 3A (Homo sapiens) (P46098 whole entry): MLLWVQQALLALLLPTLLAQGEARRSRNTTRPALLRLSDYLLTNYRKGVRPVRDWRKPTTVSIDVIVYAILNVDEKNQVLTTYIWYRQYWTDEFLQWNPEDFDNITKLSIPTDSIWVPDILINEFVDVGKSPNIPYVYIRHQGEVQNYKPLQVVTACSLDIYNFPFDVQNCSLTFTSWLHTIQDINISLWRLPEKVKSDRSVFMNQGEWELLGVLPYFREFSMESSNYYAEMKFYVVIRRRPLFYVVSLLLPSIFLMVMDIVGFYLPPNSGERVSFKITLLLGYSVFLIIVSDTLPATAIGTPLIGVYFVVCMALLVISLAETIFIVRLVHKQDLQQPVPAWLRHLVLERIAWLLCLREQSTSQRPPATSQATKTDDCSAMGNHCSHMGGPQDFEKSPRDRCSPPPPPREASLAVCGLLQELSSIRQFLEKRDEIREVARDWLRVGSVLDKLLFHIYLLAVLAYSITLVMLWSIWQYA
Test [14] deals with 5-hydroxytryptamine receptor 1E (Homo sapiens) (UniProt P28566). In words: Binding affinity to 5-HT1E (unknown origin).
Sequence of 5-hydroxytryptamine receptor 1E (Homo sapiens) (P28566 whole entry): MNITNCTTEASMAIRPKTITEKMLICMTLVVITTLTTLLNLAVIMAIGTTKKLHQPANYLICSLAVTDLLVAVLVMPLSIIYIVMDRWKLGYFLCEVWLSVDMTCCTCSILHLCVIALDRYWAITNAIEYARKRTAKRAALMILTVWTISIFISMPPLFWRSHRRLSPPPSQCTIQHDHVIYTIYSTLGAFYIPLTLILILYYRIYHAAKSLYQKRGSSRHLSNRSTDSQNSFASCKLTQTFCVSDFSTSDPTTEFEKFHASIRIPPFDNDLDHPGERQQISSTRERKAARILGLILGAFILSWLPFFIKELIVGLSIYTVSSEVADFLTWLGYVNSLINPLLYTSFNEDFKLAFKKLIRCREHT
For test [15], the target named is D(2) dopamine receptor (Homo sapiens) (UniProt P14416). In words: Binding affinity to D2 receptor (unknown origin).
Test [16] addresses 5-hydroxytryptamine receptor 5A (Homo sapiens) (UniProt P47898). In words: Binding affinity to 5-HT5A (unknown origin).
For test [17], the target named is Alpha-1A adrenergic receptor (Homo sapiens) (UniProt P35348). In words: Binding affinity to alpha1A adrenergic receptor (unknown origin).
Sequence of Alpha-1A adrenergic receptor (Homo sapiens) (P35348 whole entry): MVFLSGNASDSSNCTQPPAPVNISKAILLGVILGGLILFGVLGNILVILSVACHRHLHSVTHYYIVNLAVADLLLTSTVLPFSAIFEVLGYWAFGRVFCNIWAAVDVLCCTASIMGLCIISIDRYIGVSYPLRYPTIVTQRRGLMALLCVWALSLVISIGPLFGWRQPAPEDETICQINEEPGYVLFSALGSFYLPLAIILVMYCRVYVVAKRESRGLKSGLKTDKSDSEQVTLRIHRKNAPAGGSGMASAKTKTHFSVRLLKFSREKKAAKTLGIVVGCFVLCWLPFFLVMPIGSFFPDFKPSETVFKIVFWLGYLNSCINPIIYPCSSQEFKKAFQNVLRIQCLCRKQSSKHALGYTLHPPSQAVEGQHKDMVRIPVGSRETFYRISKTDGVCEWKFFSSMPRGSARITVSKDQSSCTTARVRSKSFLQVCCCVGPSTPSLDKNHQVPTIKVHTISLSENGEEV
For test [18], the target named is GABA-A receptor; anion channel (Homo sapiens) (UniProt P14867+P47870+P18507+P28472+P48169+Q99928+Q9UN88+P34903+O00591+O14764+Q8N1C3+P18505+P78334+P47869+P31644+Q16445). In words: Binding affinity to GABA-A receptor (unknown origin). The class given is protein-complex assay.
In test [19] the target is Kappa-type opioid receptor (Homo sapiens) (UniProt P41145). In words: Binding affinity to KOR (unknown origin).
Sequence of Kappa-type opioid receptor (Homo sapiens) (P41145 whole entry): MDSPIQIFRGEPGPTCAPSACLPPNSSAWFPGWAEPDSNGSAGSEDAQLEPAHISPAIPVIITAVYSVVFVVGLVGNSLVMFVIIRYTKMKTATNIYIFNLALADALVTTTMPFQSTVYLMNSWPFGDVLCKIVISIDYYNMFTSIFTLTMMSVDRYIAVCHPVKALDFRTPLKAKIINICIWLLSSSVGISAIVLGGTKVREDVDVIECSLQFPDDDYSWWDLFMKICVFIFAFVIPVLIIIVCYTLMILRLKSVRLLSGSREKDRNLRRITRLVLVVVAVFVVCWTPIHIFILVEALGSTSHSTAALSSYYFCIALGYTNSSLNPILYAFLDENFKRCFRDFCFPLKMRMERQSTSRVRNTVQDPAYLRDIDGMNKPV
In test [20] the target is Mu-type opioid receptor (Homo sapiens) (UniProt P35372). In words: Binding affinity to MOR (unknown origin).
Sequence of Mu-type opioid receptor (Homo sapiens) (P35372 whole entry): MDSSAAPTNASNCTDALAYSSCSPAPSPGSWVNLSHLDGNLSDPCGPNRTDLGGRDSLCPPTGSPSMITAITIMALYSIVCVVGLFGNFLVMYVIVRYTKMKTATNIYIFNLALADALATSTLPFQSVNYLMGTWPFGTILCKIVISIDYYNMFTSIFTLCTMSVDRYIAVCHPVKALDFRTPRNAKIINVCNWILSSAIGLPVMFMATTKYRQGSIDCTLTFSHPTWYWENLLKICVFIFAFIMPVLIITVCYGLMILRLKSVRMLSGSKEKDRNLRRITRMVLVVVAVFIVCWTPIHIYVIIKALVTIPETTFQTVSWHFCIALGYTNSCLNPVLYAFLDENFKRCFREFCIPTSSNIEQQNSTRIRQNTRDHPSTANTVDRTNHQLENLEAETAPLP
In test [21] the target is Histamine H2 receptor (Homo sapiens) (UniProt P25021). In words: Binding affinity to histamine H2 receptor (unknown origin).
Sequence of Histamine H2 receptor (Homo sapiens) (P25021 whole entry): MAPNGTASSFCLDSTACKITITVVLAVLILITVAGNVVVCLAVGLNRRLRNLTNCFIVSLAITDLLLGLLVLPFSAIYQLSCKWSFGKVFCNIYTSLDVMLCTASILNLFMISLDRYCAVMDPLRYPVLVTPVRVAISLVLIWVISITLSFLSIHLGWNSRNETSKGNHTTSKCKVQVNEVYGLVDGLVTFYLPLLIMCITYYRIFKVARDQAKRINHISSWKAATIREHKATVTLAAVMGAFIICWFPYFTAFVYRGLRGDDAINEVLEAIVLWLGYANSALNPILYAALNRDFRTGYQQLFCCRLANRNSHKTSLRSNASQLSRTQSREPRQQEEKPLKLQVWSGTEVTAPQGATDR
Test [22] addresses Alpha-1D adrenergic receptor (Homo sapiens) (UniProt P25100). In words: Binding affinity to alpha1D adrenergic receptor (unknown origin).
The target in test [23] is Beta-2 adrenergic receptor (Homo sapiens) (UniProt P07550). In words: Binding affinity to beta2 adrenergic receptor (unknown origin).
In test [24] the target is T2, Adenosine receptor A3 (Homo sapiens). In words: Antagonist activity at human A3 adenosine receptor transfected in HEK293 cell membranes assessed as rightward shift in 5-(2-chloro-6-((3-iodobenzyl)amino)-9H-purin-9-yl)-3,4-dihydroxy-N-methyltetrahydrofuran-2-carboxamide activation curve at 10 uM pretreated for 1 hr followed by agonist addition and measured after 2 hrs by liquid scintillation counting method. The class given is functional. To be noted: Membrane, time 3.0 hrs.

Active and inactive are the calls of the source. The calls are words filed in the database; no cut-off is given here.

Sequence of Alpha-1D adrenergic receptor (Homo sapiens) (P25100 whole entry): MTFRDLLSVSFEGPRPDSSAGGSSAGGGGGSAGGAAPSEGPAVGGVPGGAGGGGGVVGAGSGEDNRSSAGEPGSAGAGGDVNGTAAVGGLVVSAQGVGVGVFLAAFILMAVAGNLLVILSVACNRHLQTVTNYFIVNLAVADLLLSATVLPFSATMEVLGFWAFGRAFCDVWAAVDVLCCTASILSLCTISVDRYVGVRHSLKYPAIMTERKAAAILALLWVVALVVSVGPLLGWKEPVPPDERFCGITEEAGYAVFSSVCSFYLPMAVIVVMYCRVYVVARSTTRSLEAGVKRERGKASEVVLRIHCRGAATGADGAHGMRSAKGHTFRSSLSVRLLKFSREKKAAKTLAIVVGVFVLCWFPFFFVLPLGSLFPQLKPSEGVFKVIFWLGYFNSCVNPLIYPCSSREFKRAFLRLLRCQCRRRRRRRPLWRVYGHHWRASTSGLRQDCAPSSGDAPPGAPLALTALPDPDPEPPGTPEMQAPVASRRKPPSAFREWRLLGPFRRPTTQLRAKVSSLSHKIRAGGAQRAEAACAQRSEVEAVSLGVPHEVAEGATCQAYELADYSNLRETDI
Sequence of 5-hydroxytryptamine receptor 5A (Homo sapiens) (P47898 whole entry): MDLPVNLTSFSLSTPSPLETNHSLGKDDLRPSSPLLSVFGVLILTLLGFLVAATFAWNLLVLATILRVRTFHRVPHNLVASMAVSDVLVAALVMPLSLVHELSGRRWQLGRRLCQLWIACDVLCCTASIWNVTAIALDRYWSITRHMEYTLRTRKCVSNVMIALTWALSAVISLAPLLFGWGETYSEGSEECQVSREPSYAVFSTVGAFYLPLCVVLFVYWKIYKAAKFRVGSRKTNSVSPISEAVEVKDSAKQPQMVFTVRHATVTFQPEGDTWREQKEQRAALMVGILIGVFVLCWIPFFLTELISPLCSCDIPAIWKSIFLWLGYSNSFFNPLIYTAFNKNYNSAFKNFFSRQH
Sequence of Muscarinic acetylcholine receptor M4 (Homo sapiens) (P08173 whole entry): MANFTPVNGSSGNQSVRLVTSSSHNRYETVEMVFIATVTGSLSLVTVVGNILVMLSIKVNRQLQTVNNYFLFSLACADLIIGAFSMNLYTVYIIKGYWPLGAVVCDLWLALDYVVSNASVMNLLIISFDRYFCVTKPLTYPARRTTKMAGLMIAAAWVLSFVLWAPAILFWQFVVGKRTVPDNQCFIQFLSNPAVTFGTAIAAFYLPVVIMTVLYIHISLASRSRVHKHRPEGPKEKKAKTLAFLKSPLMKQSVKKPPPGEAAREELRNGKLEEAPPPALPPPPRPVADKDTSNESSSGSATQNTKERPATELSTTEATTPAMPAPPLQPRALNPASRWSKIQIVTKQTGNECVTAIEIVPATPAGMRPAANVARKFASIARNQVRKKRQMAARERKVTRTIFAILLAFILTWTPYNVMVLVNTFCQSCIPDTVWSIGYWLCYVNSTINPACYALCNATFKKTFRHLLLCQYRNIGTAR

For the compound `CCCC(CCC)c1nc2c(Nc3ccc(C#CCCCCCN)cc3)nc3ccccc3c2[nH]1`, the result in [1] and in [2] was Active.
On to `CCCC(CCC)c1nc2c(Nc3ccc(C#CCCN)cc3)nc3ccccc3c2[nH]1`, for which, in [1], the result was Active.
Take `CCCC(CCC)c1nc2c(Nc3ccc(C#CCCCCCCCCNCCCCN)cc3)nc3ccccc3c2[nH]1`: the fold change (FC) in test [3] is 12.
Turning to `CCCC(CCC)c1nc2c(Oc3ccc(Cl)c(Cl)c3)nc3ccccc3c2[nH]1`, the outcome in test [4] and in [5] was Active.
For the compound `OCCn1c(C2CCCCC2)nc2c(Nc3ccc(Cl)c(Cl)c3)nc3ccccc3c21`, the result in test [5] was Active.
On to `CCCC(CCC)c1nc2c(Sc3ccc(Cl)c(Cl)c3)nc3ccccc3c2[nH]1`, for which the result in test [4] and in [5] was Active.
`CCCC(CCC)c1nc2c(Nc3ccc(C#CCCCCCCCN)cc3)nc3ccccc3c2[nH]1`: the outcome in test [1] and in [2] was Active. The fold change (FC) in [3] was found to be 7.4.
In the case of `CCCC(CCC)c1nc2c(Nc3ccc(/C=C/CCCCCCCCN)cc3)nc3ccccc3c2[nH]1`, the fold change (FC) in test [3] is 2.5.
Turning to `CCCC(CCC)c1nc2c(Nc3ccc(I)cc3)nc3ccccc3c2[nH]1`, the outcome in test [1] was Active.
The same measure, in the same setting: the entry for `CCCC(CCC)c1nc2c(Nc3cccc(C#CCCCCCCCCN)c3)nc3ccccc3c2[nH]1` is “Active”.
With `Clc1ccc(Nc2nc3ccccc3c3nc(C4CCCCC4)oc23)cc1Cl`, the outcome in test [6] and in test [5] was Active.
With `Clc1ccc(Oc2nc3ccccc3c3[nH]c(C4CCCCC4)nc23)cc1Cl`, the outcome in test [4] and in [5] was Active.
For the compound `CCCC(CCC)c1nc2c(Nc3ccc(C#CCCCCCCCCCN)cc3)nc3ccccc3c2[nH]1`, the result (in [7]; in test [8]; in the test filed under Homo sapiens; in test [9]; in test [10]; in test [11]) was inactive. The outcome in [12], in test [13], in test [14], in [15], in test [16] and in test [17] was inactive. The outcome in test [18], in test [19], in [20], in test [21], in [22] and in test [23] was inactive. The outcome in test [1] and in [2] was Active. In [3], the fold change (FC) was 4.
For `CCCC(CCC)c1nc2c(Nc3ccc(C#CCCCN)cc3)nc3ccccc3c2[nH]1`, the result in test [1] was Active.
Regarding `CCCC(CCC)c1nc2c(Nc3ccc(C#CCCCCN)cc3)nc3ccccc3c2[nH]1`, the outcome in test [1] and in test [2] was Active.
With `CCCC(CCC)c1nc2c(Nc3ccc(C#CCCCCCCCCN(C)C)cc3)nc3ccccc3c2[nH]1`, the fold change (FC) in test [3] came out at 4.
For `CCCC(CCC)c1nc2c(Oc3ccccc3)nc3ccccc3c2[nH]1`, the outcome in test [4] and in test [5] was Active.
Consider `CCCC(CCC)c1nc2c(Nc3ccc(C#CCCCCCCN)cc3)nc3ccccc3c2[nH]1`, for which the result in [1] and in test [2] was Active.
For the compound `CCCC(CCC)c1nc2c(Nc3ccc(C#CCCCCCCCCCN4CCCCC4)cc3)nc3ccccc3c2[nH]1`, the fold change (FC) in [3] turned out to be 4.
On to `CCCC(CCC)c1nc2c(Nc3ccc(/C=C/C(=O)NCCCCCCCCN)cc3)nc3ccccc3c2[nH]1`, for which the result in [4] and in test [5] was Active.
With `CCCC(CCC)c1nc2c(Nc3ccc(C#CCCCCCCCCCN4CCCC4)cc3)nc3ccccc3c2[nH]1`, the fold change (FC) in test [3] came out at 4.
Regarding `CCCC(CCC)c1nc2c(Nc3ccc(C#CCN)cc3)nc3ccccc3c2[nH]1`, the outcome in test [1] was Active.
Take `Clc1ccc(Nc2nc3ccccc3c3sc(C4CCCCC4)nc23)cc1Cl`: in [24], the result was inactive.
Turning to `Clc1ccc(Nc2nc3ccccc3c3nc(C4CCCCC4)sc23)cc1Cl`, the outcome in test [6] and in [4] was Active.
Regarding `CCCC(CCC)c1nc2c(Nc3ccc(I)cc3)nc3ccccc3c2n1Cc1ccccc1`, the fold change (FC) in test [3] came to 2.5. Moreover, the outcome in test [5] was Active.
Consider `CCCC(CCC)c1nc2c([nH]1)c(Nc1ccc(C#CCCCCCCCCCCN)cc1)nc1ccccc12`, for which the result in test [1] and in [2] was Active. Further, in [3], the fold change (FC) was found to be 2.5.
As for `CCCC(CCC)c1nc2c(Nc3ccc(C#CCCCCCCCCN=C(N)N)cc3)nc3ccccc3c2[nH]1`, in test [3], the fold change (FC) came to 9.5.
Consider `Clc1ccc(Sc2nc3ccccc3c3[nH]c(C4CCCCC4)nc23)cc1Cl`, for which the result in [4] and in [5] was Active.
Regarding `CN(c1ccc(Cl)c(Cl)c1)c1nc2ccccc2c2[nH]c(C3CCCCC3)nc12`, the result in test [4] was Active.
